Measurements as given in paper PMC7546004, “Targeting BCL10 by small peptides for the treatment of B cell lymphoma” (Theranostics, 2020).
Read-outs that look alike come from different tables or passages of the source. Square brackets hold non-standard residues; d marks the D form. Ends that are not written are not given here. Peptide text beside a SMILES is read from it. * marks the point of attachment. Cbz = O=C(OCc1ccccc1)*

Assays:
[1] = test system: NF-κB target genes in TMD8 cells; assay: RNA-seq gene set enrichment analysis of NF-κB target genes; type: cell-based; conditions: BCL10-P4 5 μM, ibrutinib 10 nM, 8 h and 24 h, duplicate
Method: 1:100 dilution for 15 min at room temperature in the dark. Signals from FL1 and FL3 channels were collected by MACSQuant analyzer and data were analyzed using FloJo (Ashland, OR). Early apoptosis was defined as AnnexinV+/PI-, and late apoptosis as AnnexinV+/PI+. Percentage of apoptotic cells were the sum of early and late apoptotic cells.
For cell cycle analysis, cells were washed twice with cold PBS and fixed in 70% ethanol overnight at 4°C. Fixed cells were collected at 1800 rpm for 10 min and stained with PBS containing PI and DNase-free RNase A (Sigma-Aldrich) for 1h at room temperature in the dark. DNA content was measured by BD LSRII flow cytometer and data were analyzed in FloJo. […]
All extracts were treated with DNase in column during RNA purification. RNA integrity was determined on an Agilent 2100 Bioanalyzer (Agilent Technologies, SantaClara, CA). […]
RNAseq raw data are analyzed with the Salmon software 30 using default settings. Log2Fold changes and P values of differentiation gene expression between different samples are calculated using the Bioconductor - DESeq2 R package 31 using default settings. […]
Six-week-old female NOD prkdc-/- IL-2Rg-/- (NCG) mice purchased from GemPharmatech Co., Lt d we re raised in a SPF- level Laboratory Animal Room. […] Tumor volumes were monitored by a digital caliper every other day and calculated using the formula: (smallest diameter2 x largest diameter)/2. […]

HBL1 cells [2] = type: cell-based
From the text: (§1) GraphPad Prism software was used to determine GI50 values.

TMD8 cells = type: cell-based, human
From the text: as §1

BCL10 [3] = molecular target: T1, BCL10 (Homo sapiens, UniProt O95999); assay: Western blot of BCL10 protein level in DLBCL cells; type: cell-based; parameters: Western blot of BCL10 in cells treated with different concentrations of BCL10-P4 for 8 h; endogenous in cells; host or cells: HBL1, TMD8, OCI-LY1 DLBCL cells; conditions: HBL1 cells, BCL10-P4 1 h pretreatment, then MG132 or chloroquine 3 h; Figure 4H
T1 sequence (O95999 1-233): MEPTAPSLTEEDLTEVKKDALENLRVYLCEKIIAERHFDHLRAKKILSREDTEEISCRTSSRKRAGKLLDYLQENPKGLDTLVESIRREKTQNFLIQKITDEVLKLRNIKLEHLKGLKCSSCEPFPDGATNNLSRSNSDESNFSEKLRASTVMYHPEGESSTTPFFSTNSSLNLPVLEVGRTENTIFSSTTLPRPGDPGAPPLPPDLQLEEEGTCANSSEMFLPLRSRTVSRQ
Method: Cell pellets were lysed in RIPA buffer (50 mM Tris at pH 8.0, 150 mM NaCl, 1% NP-40, 1 mM EDTA, and 1X protease inhibitor cocktail) or RIPA buffer containing 0.1% SDS. Equal amounts of protein extracts were separated by SDS-PAGE and blotted onto polyvinylidene difluoride (PVDF) membranes.

[4] = test system: ABC-DLBCL cells (HBL1 and TMD8 cell lines); type: cell-based; conditions: 72 h
From the text: as §1

DLBCL cell lines = type: cell-based
From the text: as §1

Jurkat cells = assay: Growth inhibition; type: cell-based; conditions: Figure S3E; exposure time not given
From the text: as §1

293T = assay: Growth inhibition, noncancerous cell line; type: cell-based
From the text: as §1

BPH-1 = assay: Growth inhibition, noncancerous cell line; type: cell-based
From the text: as §1

[5] = test system: HBL1, TMD8 and OCI-LY1 cells; assay: Intracellular pharmacokinetics of biotinylated BCL10-P4 (streptavidin blot); type: in vitro ADME
Method: (§2) hActin- F: 5’-[…]-3’
(§3) hIL6-R: 5’- […]-3 ’.
(§4) hBcl10-F: 5’-[…] TAGAAA-3’
(§5) hBcl10-R: 5’-[…] T-3’
(§6) 1x105 HBL1, TMD8, OCl-LY 1 , OCl-LY 1 , U2932, MD901 or RCK8 cells were seeded in 12-well plate
(§7) wa sh e d and lysed with RIPA buffer.
(§8) immunoblotting with Streptavidin (Cell signaling, cat. #3999S). […]

HBL1 cells [6] = assay: Intracellular pharmacokinetics, BCL10-P4 versus DRI-BCL10-P4; conditions: Figure 6B and S7A; western blot
Method: MBP-Bcl10 was expressed and purified as previously described {Qiao, 2013 #85}. Purified
mM NaCl, 1% NP-40) at 4 °C for 1 hour, followed by addition of 5% BSA blocked S t re ptavidin (SAV)
Immunoprecipitant were washed 5 times with IP buffer and separated by SDS-PA G E . […]
as §2, §3, §4, §5, §6, §7, §8

BCL10 [7] = molecular target: T1, BCL10; assay: In vitro BCL10 filamentation assay (negative-stain electron microscopy); type: biochemical; conditions: MBP-BCL10 and peptide premixed at 1:1 or 1:2 molar ratio, RT 30 min, then TEV cleavage
Method: MBP-BCL10 was expressed and purified as previously described. MBP-BCL10 and BCL10 peptide inhibitors were premixed at a 1:1 or 1:2 molar ratio at RT for 30 minutes before adding TEV to cleave the MBP tag. 5 μL of reaction mixture was applied to copper grids (Beijing Zhongjingkeyi Technology Co., Cat. No. BZ10024a), where it remained for 1 minute and was then negatively stained with 3% uranyl acetate for 1 minute, air-dried and imaged with a JEM-1230 TEM at 100 keV.

SUDHL4 = type: cell-based; conditions: 24 h
From the text: as §1

RCK8 = type: cell-based; conditions: 24 h
From the text: as §1

OCI-LY3 = type: cell-based; conditions: 24 h
From the text: as §1

KARPAS422 = type: cell-based; conditions: 24 h
From the text: as §1

SUDHL6 = type: cell-based, human; conditions: 24 h
From the text: as §1

[8] = noncancerous cell line, Figure S2C
[9] = 5 μM biotinylated BCL10-P4, cell lysate blotted with streptavidin

**Q.** For `C=CC(=O)N1CCC[C@@H](n2nc(-c3ccc(Oc4ccccc4)cc3)c3c(N)ncnc32)C1` [ibrutinib], which “expression of NF-κB target genes (GSEA)” value [1] is on record?
**A.** comparable to the effect of ibrutinib treatment

**Q.** Which results are given for “DRQIKIWFQNRRMKWKKKGLDTLVESIRREKTQ [BCL10-P5]”?
**A.** GI50 (HBL1 cells [2]; 72 h): 66.5 ± 9.2 µM; GI50 (TMD8 cells; 72 h): 49 ± 33.9 µM

**Q.** Which “BCL10 degradation by BCL10-P4 with proteasome or autophagy inhibitor” value (BCL10 [3]) does the source give for `CCN(CC)CCCC(C)Nc1ccnc2cc(Cl)ccc12` (centres unmarked) [CHL, chloroquine] here?
**A.** prevented BCL10 degradation by BCL10-P4

**Q.** What does the source list for “DRQIKIWFQNRRMKWKKRTSSRKRAGKLLDYLQE [BCL10-P4]”?
**A.** GI50 ([4]; text summary of Figure 2A-B, read-out: GI50 in the HBL1 and TMD8 cells): 3 to 6 µM; GI50 (HBL1 cells [2]; 72 h, Figure 2B, mean ± SD of three independent experiments, read-out: GI50 HBL1): 4.2 ± 1 µM; GI50 (DLBCL cell lines; only exception U2932, read-out: GI50 values on most ABC-DLBCL cell lines): < 10 µM; GI50 (Jurkat cells): 10.3 ± 2.29 µM; growth inhibition effect on 293T (293T; [8]): neither BCL10-P2 nor BCL10-P4 displayed a growth inhibition effect; growth inhibition effect on BPH-1 (BPH-1; [8]): neither BCL10-P2 nor BCL10-P4 displayed a growth inhibition effect; cellular uptake (entry into cells) ([5]; 5 μM biotinylated BCL10-P4, 1-24 h, cell lysate blotted with streptavidin): comparable efficiency; time of disappearance from cells [5, 9]: approximately 24 h; time of peak intracellular level [5, 9]: 1 to 2 h; GI50 (TMD8 cells; 72 h, Figure 2B, mean ± SD of three independent experiments, read-out: GI50 TMD8): 4.7 ± 1.8 µM; intracellular level after the first 4 h (intracellular stability) (HBL1 cells [6]): decreased rapidly thereafter; uptake by HBL1 cells and level within the first 4 h (HBL1 cells [6]): similarly taken up

**Q.** For `CC[C@@H](C)[C@@H](NC(=O)[C@@H](CC(C)C)NC(=O)[C@@H](CO)NC(=O)[C@H](N)CCCNC(=N)N)C(=O)N[C@H](CCCCN)C(=O)N[C@H](CCCCN)C(=O)N[C@H](C)C(=O)N[C@H](CCCNC(=N)N)C(=O)N[C@H](CC(C)C)C(=O)N[C@H](Cc1c[nH]cn1)C(=O)N[C@H](CC(=O)O)C(=O)N[C@H](Cc1ccccc1)C(=O)N[C@H](Cc1c[nH]cn1)C(=O)N[C@H](CCCNC(=N)N)C(=O)N[C@H](CCCCN)C(=O)N[C@H](CCCCN)C(=O)N[C@H](Cc1c[nH]c2ccccc12)C(=O)N[C@H](CCCCN)C(=O)N[C@H](CCSC)C(=O)N[C@H](CCCNC(=N)N)C(=O)N[C@H](CCCNC(=N)N)C(=O)N[C@H](CC(N)=O)C(=O)N[C@H](CCC(N)=O)C(=O)N[C@H](Cc1ccccc1)C(=O)N[C@H](Cc1c[nH]c2ccccc12)C(=O)N[C@@H](C(=O)N[C@H](CCCCN)C(=O)N[C@@H](C(=O)N[C@H](CCC(N)=O)C(=O)N[C@H](CCCNC(=N)N)C(=O)N[C@H](CC(=O)O)C(=O)O)[C@H](C)CC)[C@H](C)CC` [DRI-BCL10-P2] (H-[dR][dS][dL][dI][dK][dK][dA][dR][dL][dH][dD][dF][dH][dR][dK][dK][dW][dK][dM][dR][dR][dN][dQ][dF][dW][dI][dK][dI][dQ][dR][dD]-OH; N-terminus and C-terminus assumed), which GI50 (HBL1 cells [2]) is on record?
**A.** 7.64 ± 3.5 µM

**Q.** What about the “BCL10 filament formation (EM)” value (BCL10 [7]) of the same compound?
**A.** inhibited Bc10 filament formation in vitro

**Q.** What about the GI50 (TMD8 cells) of the same compound?
**A.** 13.6 ± 2.3 µM

**Q.** For `CC(C)C[C@@H](C=O)NC(=O)[C@H](CC(C)C)NC(=O)[C@H](CC(C)C)NC(=O)OCc1ccccc1` [MG132] (Cbz-Leu-Leu-Leu-aldehyde), which “BCL10 degradation by BCL10-P4 with proteasome or autophagy inhibitor” value (BCL10 [3]) is on record?
**A.** negligibly prevented BCL10 degradation

**Q.** With “DRQIKIWFQNRRMKWKKRHFDHLRAKKILSR [BCL10-P2]” as the compound, how does the GI50 (SUDHL4) read?
**A.** 2.56 ± 0.23 µM

**Q.** What about the GI50 [4] of the same compound?
**A.** 3 to 6 µM

**Q.** And the GI50 (HBL1 cells [2]; 72 h)?
**A.** 5.1 ± 0.8 µM

**Q.** What about the GI50 (RCK8) of the same compound?
**A.** 16 ± 12.3 µM

**Q.** What about the GI50 (DLBCL cell lines) of the same compound?
**A.** < 10 µM

**Q.** And the GI50 (OCI-LY3)?
**A.** 5.51 ± 0.9 µM

**Q.** And the GI50 (KARPAS422)?
**A.** 5.39 ± 0.2 µM

**Q.** And the “growth inhibition effect on 293T” value (293T)?
**A.** neither BCL10-P2 nor BCL10-P4 displayed a growth inhibition effect

**Q.** And the “growth inhibition effect on BPH-1” value (BPH-1)?
**A.** neither BCL10-P2 nor BCL10-P4 displayed a growth inhibition effect

**Q.** What about the GI50 (TMD8 cells; 72 h) of the same compound?
**A.** 3.35 ± 1.1 µM

**Q.** And the GI50 (SUDHL6)?
**A.** 5.42 ± 3.09 µM

**Q.** How did the GI50 (HBL1 cells [2]; 72 h) turn out when DRQIKIWFQNRRMKWKKEKIIAERHF [BCL10-P1] was run?
**A.** 53.9 ± 10.3 µM
